Source: PMC5996347, “2-Mercapto-Quinazolinones as Inhibitors of Type II NADH Dehydrogenase and Mycobacterium tuberculosis: Structure–Activity Relationships, Mechanism of Action and Absorption, Distribution, Metabolism, and Excretion Characterization” (ACS Infectious Diseases, 2018)

What was measured:
[1] = in vitro; type: in vitro ADME; details: PAMPA, pH 7.4
Description: The permeability was performed using a 96-well precoated BD Gentest PAMPA plate (BD Biosciences, U.K.). Each well was divided into two chambers: donor and acceptor, separated by a lipid-oil-lipid trilayer constructed in a porous filter. The effective permeability, Pe, of the compound was measured at pH 7.4. Stock solutions (5 mM) of the compound were prepared in DMSO. The compound was then further diluted to 10 μM in phosphate buffered saline at pH 7.4. […] The compound dissolved in phosphate buffered saline was then added to the donor side of the membrane, and phosphate buffered saline without compound was added to the acceptor side. The PAMPA plate was left at room temperature for 5 h; after which time, an aliquot (100 μL) was then removed from both acceptor and donor compartments and mixed with acetonitrile (80 μL) containing an internal standard: donepezil at 50 ng/mL). The samples were centrifuged (10 min, 5 °C, 3270g) to sediment precipitated protein and sealed prior to UPLC-MS/MS analysis using a Quattro Premier XE (Waters Corp, USA). Pe was calculated as shown in the below equation. [drawing 2] where CA(t) = peak area of compound present in acceptor well at time (t) = 18 000 s; Cequi = [CD(t) × VD + CA(t) × VA]/(VD + VA); A = filter area; VD = donor well volume; VA = acceptor well volume; t = incubation time; CD(t) = peak area of compound present in donor well at time (t) = 18 000 s. Recovery of compound from donor and acceptor wells was calculated, and data was only accepted when recovery exceeded 70%.

[2] = physchem; type: physicochemical; details: pH 7.4
Description: The chromatographic hydrophobicity index (CHI) was determined according the method previously described.[43],[44] Briefly, test compounds were prepared as 0.5 mM solutions in 50:50 acetonitrile/water and analyzed by reversed-phase HPLC-UV (wavelength 254 nm) using a Phenomenex Luna C18 100 Å, 150 × 4.6 mm, 5 μm column with a gradient of aqueous phase (50 mM ammonium acetate (pH 7.4)) and mobile phase (acetonitrile). By plotting the retention time of a set of reference compounds against known CHI values, the CHI value of test compounds was calculated according to their retention time.

[3] = test system: MTb H37Rv; experiment: Intracellular ATP levels (BacTiter-Glo); details: 24 h drug exposure
[4] = test system: cyd knockout strain (cydC::aph); type: cell-based, Mycobacterium tuberculosis
[5] = test system: HepG2; experiment: cells; details: Homo sapiens, HepG2, read-out: HepG2 IC50
[6] = Mouse pharmacokinetics; type: in vivo, female C57Bl/6 mice; details: female
Description: Test compound was dosed as a bolus solution intravenously at 3 mg free base/kg (dose volume: 5 mL/kg; dose vehicle: 10% DMSO; 40% PEG400; 50% saline) to female C57Bl/6 mice (n = 3) or dosed orally by gavage as a suspension at 10 or at 5, 30, or 100 mg free base/kg (dose volume: 10 mL/kg; dose vehicle: 1.0% carboxy methyl cellulose) to female C57Bl/6 mice (n = 3/dose level). Blood samples were taken from each mouse tail vein at predetermined time points postdose, mixed with nine volumes of distilled water, and stored frozen until UPLC-MS/MS analysis. Pharmacokinetic parameters were derived from the blood concentration time curve using PK Solutions software v 2.0 (Summit Research Services, USA).

[7] = test system: wild-type MTb H37Rv; experiment: CFU after 7 days of treatment, wild-type; type: cell-based, Mycobacterium tuberculosis; details: treatment at MIC concentrations
Description: Figure 4 Mtb lacking the alternative type II NADH dehydrogenase encoded by ndhA was more susceptible to compound 1. Colony-forming units (CFU) after 7 days of treatment as compared to CFU at start of drug treatment (inoculum). Unpaired t test comparison between WT and ΔndhA at 0.5 μM compound 1: two-tailed P-value = 0.0023.

[8] = type: in vitro ADME; details: mouse, plasma
Description: In brief, a 96-well equilibrium dialysis apparatus was used to determine the free fraction in plasma for each compound (HT Dialysis LLC, Gales Ferry, CT). Membranes (12–14 kDaA cutoff) were conditioned in deionized water for 60 min, followed by conditioning in 80:20 deionized water/ethanol overnight and then rinsed in water and isotonic buffer before use. Mouse plasma from appropriate species was removed from the freezer and allowed to thaw on the day of experiment. Thawed plasma was then centrifuged (Allegra X12-R, Beckman Coulter, USA) and spiked with test compound (final concentration 10 μg/mL), and 150 μL aliquots (n = 3 replicate determinations) were loaded into the 96-well equilibrium dialysis plate. Dialysis against isotonic buffer (150 μL) was carried out for 5 h in a temperature controlled incubator at ca. 37 °C (Barworld scientific Ltd., UK) using an orbital microplate shaker at 100 rpm (Barworld scientific Ltd., UK). At the end of the incubation period, 50 μL aliquots of plasma or buffer were transferred into a 96-well deep plate and the composition in each well was balanced with control fluid (50 μL), such that the volume of buffer to plasma is the same. Sample extraction was performed by the addition of 200 μL of acetonitrile containing an appropriate internal standard. Samples were allowed to mix for 1 min and then centrifuged at 3000 rpm in 96-well blocks for 15 min (Allegra X12-R, Beckman Coulter, USA) after which 150 μL of supernatant was removed to 50 μL of water. All samples were analyzed by UPLC-MS/MS on a Quattro Premier XE Mass Spectrometer (Waters Corporation, USA). The unbound fraction was determined as the ratio of the peak area in buffer to that in plasma.

[9] = mouse liver microsomes
[10] = test system: M. tuberculosis H37Rv; experiment: Extracellular flux analysis (oxygen consumption rate); details: 1 at 39 μM, 7 at 45 μM
[11] = test system: MTb H37Rv in J774 macrophages; experiment: Activity against MTb in infected macrophages; type: cell-based, Mycobacterium tuberculosis; details: 7 days of drug treatment, CFU
Description: Figure S7. […] J774 macrophages in
24w plates (500,000 cells per well) were infected with MTb H37Rv at an MOI of 1:1 for 24 hours. Infected cells were washed three times and supplemented with macrophage growth medium with compounds at the indicated concentrations or the DMSO solvent. Cell medium was replenished every 3 days and cells lyzed after 7 days of drug treatment and plated on 7H11/OADC plates for CFU enumeration.
(1 picture or pasted object on this page, not shown here)

[12] = test system: piniBAC reporter strain; type: cell-based, Mycobacterium tuberculosis; details: upregulation of iniBAC promoter
[13] = C57Bl/6, mouse, in vivo, po, 10 mg/kg

For `O=C(CSc1nc2ccccc2c(=O)[nH]1)NC1CCCCC1` [Compound 1, N-Cyclohexyl-2-((4-oxo-3,4-dihydroquinazolin-2-yl)thio)acetamide], the Papp at 5 h, 10 μM [1] was 8.3 ×10⁻⁶ cm/s, the chromatographic logD [2] was 1.8 and the “Cellular ATP levels in MTb” value [3] was “depletion of cellular ATP levels”. The “Cyd KO reporter” value [4] was “Not likely QcrB inhibitor”, the IC50 [5] was greater than 50 µM and the Clb ([6]; C57Bl/6, mouse, in vivo) was 23 mL/min/kg. It also gave a Vd ([6]; C57Bl/6, mouse, in vivo) of 0.8 L/kg, a bioavailability ([6]; C57Bl/6, mouse, in vivo) of 46% and an AUC(0-t) [6, 13] of 2610 ng·h/mL. The Cmax [6, 13] was 748 ng/mL, the half-life ([6]; C57Bl/6, whole blood, C57 mouse PK at 3 iv and 10 po (mg/kg), 1 free base, 7 HCl salt) was 1.5 h and the “Growth of wild-type MTb H37Rv over 7 days” value [7] was “could not fully suppress growth”. The “PPB (% unbound)” value [8] was 14 % unbound, the “Mouse microsomal metabolite identification” value [9] was “significant oxidation of the cyclohexyl and quinazolin-4(3H)-one rings as well as cleavage of the amide bond” and the “Effect on maximal respiration after CCCP uncoupling” value ([10]; CCCP 3 μM, compared to untreated control) was “significantly diminished maximal respiration”. The “Effect on basal MTb OCR” value ([10]; ~45 min, glucose or palmitate) was “minimal effect”, the “Activity against MTb growing in infected macrophages” value [11] was “lacked activity” and the pini-LUC reporter [12] was “Not likely cell wall inhibitor”.
